These results are taken from US20030215817A1, “Modulation of gene expression in formation of fatty atherosclerotic lesions” (priority 2003, published 2003).

Holding throughout (assay type): in vivo, rabbit
For assay [1], the system named is REC1_3 (MspI ACGG 162) mRNA. Kind of assay: TOGA analysis, REC1_3. The conditions noted are these: REC1_3, ACGG 162; rabbit aorta; 14 days cholesterol + (R)-enantiomer. The method, then:
(§1) To perform the studies, New Zealand male rabbits weighing 2.0-2.5 kg (Charles River, Calco, Italy) were used. The rabbits were divided into three groups and maintained in identical experimental conditions: (1) control group (n=15); rabbits fed a cholesterol-rich diet; (2) lercanidipine-treated group (n=15); rabbits fed a cholesterol-rich diet and also treated with lercanidipine (3 mg/kg/week); and (3) (R)-lercanidipine-treated group (n=5); rabbits fed a cholesterol-rich diet and also treated with the (R)-enantiomer of lercanidipine (3 mg/kg/week). After a 2 week period of subcutaneous, once a week, pretreatment with 3 mg/kg/week of lercanidipine or (R)-lercanidipine, the rabbits received a daily cholesterol supplement for up to 8 weeks or 2 weeks, respectively. In the following examples, use of the term “lercanidipine” refers to the racemic mixture of lercanidipine hydrochloride, whereas “(R)-lercanidipine” refers to the (R)-enantiomer of lercanidipine hydrochloride.
(§2) The mRNA from the above-described groups was isolated from aorta at different time points, resulting in the following mRNA samples: (1) Day 0 Control=no administered cholesterol, no lercanidipine; (2) Day 0+lercanidipine=no administered cholesterol, treatment with lercanipidine (2 weeks; 3 mg/kg/week); (3) Day 14 Control=cholesterol diet for two weeks, no lercanidipine; (4) Day 14+lercanidipine=cholesterol diet for two weeks, treatment with lercanidipine (four weeks; 3 mg/kg/week); (5) Week 8 Control=cholesterol diet for 8 weeks, no lercanidipine; and (6) Week 8+lercanidipine=cholesterol diet for 8 weeks, treatment with lercanidipine (10 weeks; 3 mg/kg/week). In addition, Day 14+(R)-lercanidipine mRNA samples were prepared from rabbits given a cholesterol diet for two weeks and treated with 3 mg/kg/week (R)-lercanidipine for four weeks.
(§3) Aorta mRNAs were prepared in the following manner. First, the aortas from each experimental group were retrieved and shredded using a polytron homogenizer. The samples were further homogenized using a teflon pestle, after which the cellular debris, nuclei, and blood cells were pelleted by centrifugation. The supernatants were extracted twice with phenol-chloroform-isoamyl alcohol and once with chloroform-isoamyl alcohol. RNA was then precipitated from the aqueous phase with ethanol. The poly A+ mRNA was prepared using standard methods of polyA selection known in the art (Schriber et al., J. Mol. Biol., 142:93-116 (1980)).
(§4) The isolated mRNA was analyzed using a method of simultaneous sequence-specific identification of mRNAs known as TOGA, described in U.S. Pat. No. 5,459,037 and U.S. Pat. No. 5,807,680, hereby incorporated herein by reference. In a preferred embodiment, the TOGA method further comprised an additional PCR step performed using a mixture of four 5′ PCR primers and cDNA templates prepared from a population of antisense cRNAs. A final PCR step that used a mixture of 256 5′ PCR primers produced PCR products that were cDNA fragments that corresponded to the 3′-region of the starting mRNA population. The produced PCR products were then identified by: (a) the initial 5′ sequence comprising the sequence remainder of the recognition site of the restriction endonuclease used to cut and isolate the 3′ region plus the sequence of the preferably four parsing bases immediately 3′ to the remainder of the recognition site, preferably the sequence of the entire fragment; and (b) the length of the fragment. […]

The test system of another assay is REC1_19 (TGTT 393) mRNA. Kind of assay: TOGA analysis, REC1_19. Particulars: REC1_19 TGTT 393; rabbit aorta, cholesterol 14 days. The method, then: as §1, §2, §3, §4
In the next assay the test system is REC1_16 (TCGG 195) mRNA. Kind of assay: TOGA analysis, REC1_16. The conditions noted are these: REC1_16 TCGG 195; rabbit aorta, 14 days cholesterol, (R)-enantiomer. Here is the method: as §1, §2, §3, §4
Assay [2] concerns REC1_18 (MspI TGGT 241) mRNA. Kind of assay: TOGA analysis, REC1_18. Particulars: REC1_18 TGGT 241; rabbit aorta, cholesterol 14 days. Here is the method:
as §1, §2, §3, §4

The test system of assay [3] is REC1_8 (MspI CCCG 243) mRNA. Kind of assay: TOGA analysis, REC1_8. Particulars: REC1_8 CCCG 243; rabbit aorta, 14 days cholesterol. The method, then: as §1, §2, §3, §4
Assay [4] concerns REC1_21 (TTCC 165) mRNA, elastin gene. Kind of assay: TOGA analysis, REC1_21. Particulars: REC1_21 TTCC 165; rabbit aorta, cholesterol 14 days. Here is the method:
as §1, §2, §3, §4

For assay [5], the system named is REC1_36 (digital address TTAG 155) mRNA. Kind of assay: TOGA analysis, REC1_36. Particulars: REC1_36 TTAG 155; rabbit aorta, cholesterol 14 days. Here is the method:
as §1, §2, §3
The isolated mRNA was analyzed using a method of simultaneous sequence-specific identification of mRNAs known as TOGA, described in U.S. Pat. No. 5,459,037 and U.S. Pat. No. 5,807,680, hereby incorporated herein by reference. In a preferred embodiment, the TOGA method further comprised an additional PCR step performed using a mixture of four 5′ PCR primers and cDNA templates prepared from a population of antisense cRNAs. A final PCR step that used a mixture of 256 5′ PCR primers produced PCR products that were cDNA fragments that corresponded to the 3′-region of the starting mRNA population. The produced PCR products were then identified by: (a) the initial 5′ sequence comprising the sequence remainder of the recognition site of the restriction endonuclease used to cut and isolate the 3′ region plus the sequence of the preferably four parsing bases immediately 3′ to the remainder of the recognition site, preferably the sequence of the entire fragment; and (b) the length of the fragment. These two parameters, sequence and fragment length, were used to compare the obtained PCR products to a database of known polynucleotide sequences. Since the length of the obtained PCR products includes known vector sequences at the 5′ and 3′ ends of the insert, the sequence of the insert provided in the sequence listing is shorter than the fragment length that forms part of the digital address.
The method yields Digital Sequence Tags (DSTs), that is, polynucleotides that are expressed sequence tags of the 3′ end of mRNAs. […]

The subject of assay [6] is REC1_13 (MspI GCCC 216) mRNA. Kind of assay: TOGA analysis, REC1_13. Particulars: REC1_13 GCCC 216; rabbit aorta, 14 days cholesterol. Here is the method:
as §1, §2, §3, §4

The test system of the next assay is REC1_5 (AGTG 184) mRNA. Kind of assay: TOGA analysis, REC1_5. Particulars: REC1_5, AGTG 184; rabbit aorta; 14 days cholesterol + (R)-enantiomer. The method, then:
as §1, §2, §3, §4

For assay [7], the system named is REC1_2 (MspI AATC 108) mRNA. Kind of assay: TOGA analysis, REC1_2. Particulars: REC1_2, AATC 108; rabbit aorta; 14 days cholesterol + (R)-enantiomer. The method, then:
as §1, §2, §3, §4

Assay [8] concerns REC1_20 (TTAC 210) mRNA, phosphofructo-1-kinase C isozyme. Kind of assay: TOGA analysis, REC1_20. Particulars: REC1_20 TTAC 210; rabbit aorta, cholesterol 14 days. The method, then:
as §1, §2, §3, §4

For the next assay, the system named is REC1_17 (TCGT 199) mRNA. Kind of assay: TOGA analysis, REC1_17. The conditions noted are these: REC1_17 TCGT 199; rabbit aorta, 14 days cholesterol, (R)-enantiomer. The method, then: as §1, §2, §3, §4

With `COC(=O)C1=C(C)NC(C)=C(C(=O)OC(C)(C)CN(C)CCC(c2ccccc2)c2ccccc2)[C@@H]1c1cccc([N+](=O)[O-])c1` [Lercanidipine (R)], the “level of gene expression (TOGA), 14 Day hypercholesterol + Lercanidipine (R)” value was 197 in assay [1]; 1554 in the assay with REC1_16 (TCGG 195) mRNA; 643 in the assay on REC1_5 (AGTG 184) mRNA; 1250 in assay [7]; 1117 in the assay on REC1_17 (TCGT 199) mRNA. Also, the “level of gene expression, 14 Day hypercholesterol + Lercanidipine (R)” value is given as 748 in the assay on REC1_19 (TGTT 393) mRNA; 330 in assay [2]; 539 in [3]; 1574 in assay [4]; 500 in assay [5]; 404 in [6]. For the same compound, the “level of gene expression, 14 Day hypercholesterol + Lercanidipine (R)” value in assay [8] is reported as 669.
